As a reminder, the Km is the substrate concentration at which the rate is half of its maximum. Usually kcat stands for the number of substrate molecules converted per active site and unit of time at saturation.

Entries after “also recorded” stand apart in the source; their conditions may differ. Read-outs that look alike come from different tables or passages of the source.

Experiment [1] deals with thymidylyltransferase (rmlA-encoded Ep) (Salmonella typhimurium, UniProt P26393). The settings on record: Lindquist et al. 1993, cited from earlier work.
Sequence of thymidylyltransferase (rmlA-encoded Ep) (P26393 whole entry): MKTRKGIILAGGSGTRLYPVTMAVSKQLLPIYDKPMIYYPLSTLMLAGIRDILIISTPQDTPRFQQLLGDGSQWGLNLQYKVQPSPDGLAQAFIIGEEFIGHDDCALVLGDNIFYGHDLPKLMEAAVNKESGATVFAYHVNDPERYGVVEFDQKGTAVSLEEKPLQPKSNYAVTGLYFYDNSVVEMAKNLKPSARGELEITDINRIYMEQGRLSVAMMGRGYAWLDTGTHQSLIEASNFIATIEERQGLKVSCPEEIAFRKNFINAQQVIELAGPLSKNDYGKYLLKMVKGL
For another experiment, the target named is T1, GtfE (Amycolatopsis orientalis, UniProt Q9AFC6).
T1 construct: made in house; host or cells: Escherichia coli
T1 sequence (Q9AFC6 1-409): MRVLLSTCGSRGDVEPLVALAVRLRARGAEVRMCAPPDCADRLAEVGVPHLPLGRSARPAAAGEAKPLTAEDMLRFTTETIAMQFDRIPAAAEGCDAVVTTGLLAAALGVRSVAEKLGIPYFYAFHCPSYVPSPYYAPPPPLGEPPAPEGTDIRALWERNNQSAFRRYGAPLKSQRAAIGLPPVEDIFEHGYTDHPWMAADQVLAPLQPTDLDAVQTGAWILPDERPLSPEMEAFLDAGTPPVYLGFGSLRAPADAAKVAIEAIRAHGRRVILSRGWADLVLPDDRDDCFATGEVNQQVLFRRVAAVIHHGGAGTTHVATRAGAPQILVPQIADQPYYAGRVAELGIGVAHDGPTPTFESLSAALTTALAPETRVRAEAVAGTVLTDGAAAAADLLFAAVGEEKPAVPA
Description: GtfE steady-state kinetics and transfer of NDP-glucose derivatives to heptapeptide aglycone. It counts as biochemical. The settings on record: for Km: NDP-sugar donor varied, acceptor vancomycin aglycone held at 1 mM; for Km / kcat: pH 9; for kcat: acceptor vancomycin aglycone 1 mM; for recognition / transfer of the sugar by GtfE: vancomycin and teicoplanin aglycone acceptors, HPLC and mass spectrometry; for catalytic efficiency relative to native substrate: vancomycin aglycone as acceptor. On the procedure:
(The acceptor substrate, the vancomycin aglycone, was held constant at 1 mM in each experiment.)
Biochemistry 2001; 40(15):4745-55; and Solenberg et al. Production of hybrid glycopeptide antibiotics in vitro and in Streptomyces toyocaensis. Chem Biol 1997; 4(3):195-202. Reactions were carried out and analyzed by HPLC as previously described. […] Each 100 μL reaction contained either 1 mM vancomycin aglycone or 0.5 mM teicoplanin aglycone. […] Reactions with GtfD also contained 2 mM UDP-L-4-epi-vancosamine. 50 μL time points were taken at 0 and 20 h, and quenched with 9 vol methanol. After centrifugation, the supernatants were dried and resuspended in water for HPLC analysis. All glycosylation reactions were monitored by UV (285 nm) using a Vydac C18 small pore column with a linear gradient of 0-20 percent acetonitrile in water with 0.1 percent trifluoracetic acid. The molecular weight of new products was analyzed by Maldi-TOF mass spectrometry using a Perseptive Biosystems Voyager-DE STR mass spectrometer.
All reactions were carried out with 1 mM vancomycin aglycone as the acceptor substrate. […] Each experiment was performed in duplicate or triplicate.

For the next experiment, the system named is DNA. The settings on record: estimated; unit not given; cited from earlier work.
Where [2] appears, read: read-out: Km, forward direction.

For the molecule `Cc1cn([C@H]2C[C@H](O)[C@@H](COP(=O)(O)OP(=O)(O)OP(=O)(O)O)O2)c(=O)[nH]c1=O` [dTTP], the Km in experiment [1] (setting [2]) is 20 µM.
Take `O=P(O)(O)O[C@H]1O[C@H](CO)[C@@H](O)[C@H](O)[C@H]1O` [α-D-glucose-1-phosphate]: in experiment [1] (setting [2]), the Km was 110 µM.
With `NC1C(OP(=O)(O)OP(=O)(O)OCC2OC(n3ccc(=O)[nH]c3=O)C(O)C2O)OC(CO)C(O)C1O` [UDP-2-NH2-glucose, Uridine 5′-(2-amino-2-deoxy-α-D-glucopyranosyl diphosphate)], at GtfE, the Km was 790 ± 80 µM and the kcat was 0.045 ± 0.0033 s⁻¹.
As for `Cc1cn(C2CC(O)C(COP(=O)(O)OP(=O)(O)OC3OC(CO)C(O)C(N)C3O)O2)c(=O)[nH]c1=O` [TDP-3-NH2-glucose, Thymidine 5′-(3-amino-3-deoxy-α-D-glucopyranosyl diphosphate)], on GtfE, the Michaelis-Menten constant (Km) was 720 ± 60 µM and the kcat worked out at 0.06 ± 0.0033 s⁻¹.
For the molecule `[N-]=[N+]=NC1C(OP(=O)(O)OP(=O)(O)OCC2OC(n3ccc(=O)[nH]c3=O)C(O)C2O)OC(CO)C(O)C1O` (centres unmarked) [UDP-2-azido-glucose], the “recognition / transfer of the sugar by GtfE” value (from here on “recognition / transfer”) at GtfE is recorded as “inadequate for transfer”.
Turning to `Cc1cn([C@H]2C[C@H](O)[C@@H](COP(=O)(O)OP(=O)(O)O[C@H]3O[C@H](CO)[C@@H](O)[C@H](O)[C@H]3O)O2)c(=O)[nH]c1=O` [TDP-glucose, Thymidine 5′-(α-D-glucopyranosyl diphosphate), reference compound], at GtfE, the Km came to 620 ± 90 µM and the kcat worked out at 0.483 ± 0.033 s⁻¹. Moreover, the Km in experiment [1] (read-out: Km, reverse reaction) was 83 µM.
Take `O=C[C@H](O)[C@@H](O)[C@H](O)CO` [UDP-xylose, UDP xylose, reference compound]: the “catalytic efficiency relative to native substrate” value at GtfE is “about 10%”.
On to `NC[C@H]1O[C@H](OP(=O)(O)OP(=O)(O)OC[C@H]2O[C@@H](n3ccc(=O)[nH]c3=O)[C@H](O)[C@@H]2O)[C@H](O)[C@@H](O)[C@@H]1O` [UDP-6-NH2-glucose, Uridine 5′-(6-amino-6-deoxy-α-D-glucopyranosyl diphosphate)], for which, on GtfE, the Km stood at 1200 ± 200 µM and the kcat turned out to be 0.025 ± 0.0033 s⁻¹.
Turning to `O=c1ccn(C2OC(COP(=O)(O)OP(=O)(O)OC3OC(CO)C(O)C(O)C3F)C(O)C2O)c(=O)[nH]1` (centres unmarked) [UDP-2-fluoro-glucose], at GtfE, the “recognition / transfer” value is listed as “inadequate for transfer; also recorded: not recognized”.
For `[N-]=[N+]=NCC1OC(OP(=O)(O)OP(=O)(O)OC[C@H]2O[C@@H](n3ccc(=O)[nH]c3=O)[C@H](O)[C@@H]2O)C(O)C(O)C1O` (some centres unmarked) [UDP-6-azido-glucose], on GtfE, the “recognition / transfer” value was “inadequate for transfer”.
Regarding `O=P(O)(O)OP(=O)(O)O` [diphosphate], in experiment [1] (read-out: Km, reverse reaction), the Km is 150 µM.
`O=c1ccn([C@@H]2O[C@H](COP(=O)(O)OP(=O)(O)O[C@H]3O[C@H](CCl)[C@@H](O)[C@H](O)[C@H]3O)[C@@H](O)[C@H]2O)c(=O)[nH]1` [UDP-6-Cl-glucose, UDP-6-chloro-glucose]: on GtfE, the Km was 21000 ± 6000 µM, the kcat is 0.005 ± 0.0017 s⁻¹ and the “catalytic efficiency relative to native substrate” value is given as “less than 0.1%”.
As to `Cc1cn([C@H]2C[C@H](O)[C@@H](COP(=O)(O)OP(=O)(O)O[C@H]3O[C@H](CO)[C@@H](N)[C@H](O)[C@H]3O)O2)c(=O)[nH]c1=O` [TDP-4-NH2-glucose, Thymidine 5′-(4-amino-4-deoxy-α-D-glucopyranosyl diphosphate)], on GtfE, the Km was found to be 1100 ± 100 µM and the kcat was determined as 0.0217 ± 0.0017 s⁻¹.
As to `CCN[C@H]1CO[C@@H](O[C@H]2[C@H](O[C@H]3C#CC=CC#C[C@@]4(O)CC(=O)C(NC(=O)OC)=C3/C4=C\CSSSC)O[C@H](C)[C@@H](NO[C@H]3C[C@H](O)[C@H](SC(=O)c4c(C)c(I)c(O[C@@H]5O[C@@H](C)[C@H](O)[C@@H](OC)[C@H]5O)c(OC)c4OC)[C@@H](C)O3)[C@@H]2O)C[C@@H]1OC` (stereo in doubt) [calicheamicin, calicheamicin γ1^I], the “affinity (DNA binding)” value in the experiment with DNA was 10^6-10^8.
For the molecule TDP-2-fluoro-glucose, on GtfE, the “recognition / transfer” value was “not detectably processed”.

The record behind these values is patent US8198419B2, “Glycorandomization and production of novel erythromycin analogs” (Wisconsin Alumni Research Foundation, priority 2001, dated 2012).
